From patent US8802695B2, “Apoptosis signal-regulating kinase 1 inhibitors” (Takeda Pharmaceutical Company Limited, priority 2010, dated 2014)

Key:
[1] = biological target: T1, ASK1 (Homo sapiens (Human), UniProt Q99683); experiment: Homogeneous Time-Resolved Fluorescence (HTRF) assay for inhibitory effect against ASK1 (Example C; KinEASE STK S3 kit); type: biochemical; conditions: 25 nM ASK1, 100 μM ATP, read-out: Enzyme Activity C IC50
From the text: (§1) The inhibitory effect of the compound of the invention on ASK1 may be evaluated by evaluating the phosphorylating activity of the enzyme on a known substrate with or without the presence of the test compound. Example B provides such an assay where myelin basic protein (Wako) is used as substrate and detection is by scintillation counting. It should be understood other substrates and detection mechanism may be used. A commercially available a kit, Cisbio's HTRF® KinEASE™ STK kit, has shown to be useful for evaluating ASK1 activity. The assay uses an anti-phosphoseric specific, Eu^3+-Cryptate labeled antibody to mark the phosphorylated product of ASK1 on a biotinylated kinase substrate, and detection is by time resolved fluorescence using XL665 labeled streptavidin. The fluorescence intensity is proportional to the amount of product formation. Example C provides the assay protocol.
Homogeneous Time-Resolved Fluorescence (HTRF) Assay for Measuring the Inhibitory Effect of Exemplified Compounds of the Invention Against ASK1
Recombinant human ASK1 is purchased from Millipore (Cat #14-606). The enzymatic assay of ASK1 is set up by using HTRF® KinEASE™ STK S3 kit, the Universal Assay for Serine/Threonine Kinases kit from CisBio.
The inhibitory properties of compounds to ASK1 may be determined using a white 384-well-plate format under the following reaction conditions: 25 nM ASK1, 1 μM CisBio STK S3-biotion peptide, 100 μM ATP, and 1%-2% DMSO in kinase assay buffer of 50 mM HEPES, pH 7.3, 10 mM NaCl, 10 mM MgCl2, 0.01% Brij35, 0.2 mM EDTA, and 1 mM DTT. Reaction product is determined quantitatively by HTRF after the addition of detection reagent SA-XL665 and STK-antibody-cryptate.
The assay reaction may be initiated as follows: 2 μl of the mixture of 3 μM CisBio STK S3-biotion peptide and 300 μM ATP with 2 μl of test compound (2 fold serial dilutions for 11 data points for each inhibitor) containing 3%-6% DMSO are added to each well of the plate, followed by the addition of 2 μL of 75 nM ASK1 to initiate the reaction (final enzyme concentration was 25 nM for ASK1). The reaction mixture may then be incubated at room temperature for 1 hour, and quenched and developed by the addition of 6 μL of 100-fold diluted STK-antibody-Cryptate and 250 nM SA-XL665 in Cisbio HTRF detection buffer (50 mM HEPES, pH7.0, 0.1% BSA, 0.8 M KF, and 20 mM EDTA). The fluorescence intensity is measured at 620 nm (Cryptate) and 665 nm (XL665) after a 1-2 hour incubation at room temperature. A ratio is calculated (665/620) for each well and is fitted to the standard IC50 curve to determine inhibition constants (IC50).
Target sequence in this assay (Q99683 649-946): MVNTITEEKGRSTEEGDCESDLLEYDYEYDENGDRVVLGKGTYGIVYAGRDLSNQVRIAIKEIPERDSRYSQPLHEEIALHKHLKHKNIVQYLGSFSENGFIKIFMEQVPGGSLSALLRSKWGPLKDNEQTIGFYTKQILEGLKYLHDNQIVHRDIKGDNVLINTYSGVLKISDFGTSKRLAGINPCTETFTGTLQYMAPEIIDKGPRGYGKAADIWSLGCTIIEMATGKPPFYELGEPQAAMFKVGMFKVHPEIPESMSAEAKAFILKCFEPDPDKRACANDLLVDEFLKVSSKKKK

[2] = biological target: T1, ASK1; experiment: Scintillation assay for inhibitory effect against ASK1 (Example B; myelin basic protein substrate, [γ-32P]ATP); type: biochemical; conditions: 2.5 μM ATP solution, read-out: Enzyme Activity B IC50
From the text: as §1
Target sequence in this assay (Q99683 650-1374): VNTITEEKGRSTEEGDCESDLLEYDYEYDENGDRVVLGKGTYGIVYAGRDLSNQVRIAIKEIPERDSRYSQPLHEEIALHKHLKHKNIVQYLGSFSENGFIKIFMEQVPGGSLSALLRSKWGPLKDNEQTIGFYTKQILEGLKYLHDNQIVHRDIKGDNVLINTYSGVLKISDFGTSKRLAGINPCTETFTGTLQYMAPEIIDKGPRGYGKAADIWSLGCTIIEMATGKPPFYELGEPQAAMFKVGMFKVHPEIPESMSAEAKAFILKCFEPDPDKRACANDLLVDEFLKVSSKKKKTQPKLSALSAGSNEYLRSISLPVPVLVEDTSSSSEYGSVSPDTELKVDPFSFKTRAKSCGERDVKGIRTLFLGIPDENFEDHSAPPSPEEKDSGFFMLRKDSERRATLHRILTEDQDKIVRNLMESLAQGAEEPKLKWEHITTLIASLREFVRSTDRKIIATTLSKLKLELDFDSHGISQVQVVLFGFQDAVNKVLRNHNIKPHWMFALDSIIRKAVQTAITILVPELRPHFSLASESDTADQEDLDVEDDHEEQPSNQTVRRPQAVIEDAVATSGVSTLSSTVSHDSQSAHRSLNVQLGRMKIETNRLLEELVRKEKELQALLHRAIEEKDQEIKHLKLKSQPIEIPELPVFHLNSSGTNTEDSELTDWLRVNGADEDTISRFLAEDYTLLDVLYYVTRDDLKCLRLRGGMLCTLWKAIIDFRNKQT
Cloning of cDNA encoding human ASK1 was conducted by PCR using primers, 5′-[…] […]-3′ (SEQ ID NO: 1) and 5′-AAAGCGGCCGCTCAA […]-3′ (SEQ ID NO: 2), from human heart cDNA library (Becton, Dickinson and Company). The PCR product was subjected to agarose gel (1%) electrophoresis, a 2.2 kb DNA fragment containing an ASK1 gene was recovered from the gel, and then digested with restriction enzymes, NotI and SalI, and inserted into a plasmid pFASTBAC1 (Invitrogen) to prepare a plasmid pFB-ASK1. The insert was verified by sequencing. Recombinant baculovirus was prepared according to the procedure of the Bac-to-Bac baculovirus expression system (Invitrogen).
Sf-21 cells were seeded to achieve 1×10^6 cells/mL in 100 mL of Sf-900 II SFM medium (Invitrogen) which contains 10% fetal calf serum and then cultured at 27° C. for 24 hrs. To express ASK1 in cells, 0.15 mL of the recombinant baculovirus virus stock was added to cells, and the then cultured for 60 hrs. The cells were separated from the culture solution by centrifugation at 3000 rpm for 10 min and washed once with PBS. The cells were suspended in 10 mL of lysis buffer (25 mM HEPES (pH 7.5), 1% Triton X, 130 mM NaCl, 1 mM EDTA, 1 mM DTT, 25 mM (3-glycerophosphate, Protease inhibitor complete (Roche), 1 mM sodium orthovanadate) and ruptured by four times of treatment with a homogenizer (POLYTRON) at 20000 rpm for 30 seconds. Active ASK1 protein was purified from a supernatant obtained by centrifugal separation at 40000 rpm for 45 min using anti-FLAG M2 Affinity Gel (Sigma).
Scintillation Assay for Measuring the Inhibitory Effect of Exemplified Compounds of the Invention Against ASK1
The test compounds (2.5 μL) dissolved in DMSO were added to wells containing 37.5 μL of the reaction solution (25 mM HEPES (pH 7.5), 10 mM magnesium acetate, 1 mM DTT) including 30 ng of active ASK1 protein and 1 μg of myelin basic protein (Wako), and incubated at room temperature for 5 min. To start the reaction, 10 μL of ATP solution (2.5 μM ATP, 0.1 μCi [γ-^32P]ATP) was added to wells. After incubating at room temperature for 30 min, the reaction was terminated by adding 50 μL of 20% TCA solution. The reaction solution was incubated at 4° C. for 30 min and an acid-insoluble fraction was transferred onto a GF/C filter (Packard) with Cell Harvester (Packard), and washed with 250 mM phosphoric acid. After drying at 45° C. for 60 min., 40 μL of Microscint 0 (Packard) was added and the radioactivity was measured with TopCount (Packard). The concentrations (IC50 value) of the test compounds necessary for 50% inhibition of kinase activity were calculated by PRISM 3.0 (Graphpad Software).

Row | Compound | IC50 [1] [nM] | IC50 [2] [nM]
1 | CC(C)(O)c1ccc(C(=O)Nc2cc3c(ccn3CC3CC3)cn2)cc1 [Compound 9, N-(1-(cyclopropylmethyl)-1H-pyrrolo[3,2-c]pyridin-6-yl)-4-(2-hydroxypropan-2-yl)benzamide] | 237 | 81
2 | CC(C)(O)c1ccc(C(=O)Nc2cc3c(cn2)c(Br)cn3CC2CC2)cc1 [Compound 10, N-(3-bromo-1-(cyclopropylmethyl)-1H-pyrrolo[3,2-c]pyridin-6-yl)-4-(2-hydroxypropan-2-yl)benzamide] | 62 | 3
3 | CCn1cc(Br)c2cnc(NC(=O)c3ccc(C(C)(C)O)cc3)cc21 [Compound 11, N-(3-bromo-1-ethyl-1H-pyrrolo[3,2-c]pyridin-6-yl)-4-(2-hydroxypropan-2-yl)benzamide] | 8 | 3
4 | CCn1cc(C)c2cnc(NC(=O)c3ccc(C(C)(C)O)cc3)cc21 [Compound 12, N-(1-ethyl-3-methyl-1H-pyrrolo[3,2-c]pyridin-6-yl)-4-(2-hydroxypropan-2-yl)benzamide] | 20 | 7
5 | CCn1ccc2cnc(NC(=O)c3ccc([C@@](C)(O)CO)cc3)cc21 [Compound 13, (R)-4-(1,2-dihydroxypropan-2-yl)-N-(1-ethyl-1H-pyrrolo[3,2-c]pyridin-6-yl)benzamide] | 64 | 55
6 | Cn1cc(Br)c2cnc(NC(=O)c3ccc(C(C)(C)O)cc3)cc21 [Compound 15, N-(3-bromo-1-methyl-1H-pyrrolo[3,2-c]pyridin-6-yl)-4-(2-hydroxypropan-2-yl)benzamide] | 10 | 5
7 | Cn1cc(Br)c2cnc(NC(=O)c3ccc([C@@](C)(O)CO)cc3)cc21 [Compound 16, (R)—N-(3-bromo-1-methyl-1H-pyrrolo[3,2-c]pyridin-6-yl)-4-(1,2-dihydroxypropan-2-yl)benzamide] | 20 | 7
8 | C[C@](O)(CO)c1ccc(C(=O)Nc2cc3c(ccn3C3CC3)cn2)cc1 [Compound 17, (R)—N-(1-cyclopropyl-1H-pyrrolo[3,2-c]pyridin-6-yl)-4-(1,2-dihydroxypropan-2-yl)benzamide] | 214 | 69
9 | CCn1cc(C)c2cnc(NC(=O)c3ccc([C@@](C)(O)CO)cc3)cc21 [Compound 18, (R)-4-(1,2-dihydroxypropan-2-yl)-N-(1-ethyl-3-methyl-1H-pyrrolo[3,2-c]pyridin-6-yl)benzamide] | 17 | 14
10 | Cc1cn(C)c2cc(NC(=O)c3ccc(C(C)(C)O)cc3)ncc12 [Compound 19, N-(1,3-dimethyl-1H-pyrrolo[3,2-c]pyridin-6-yl)-4-(2-hydroxypropan-2-yl)benzamide] | 29 | 19
11 | CC(C)(O)c1ccc(C(=O)Nc2cc3c(ccn3CS(C)(=O)=O)cn2)cc1 [Compound 21, 4-(2-hydroxypropan-2-yl)-N-(1-(methylsulfonylmethyl)-1H-pyrrolo[3,2-c]pyridin-6-yl)benzamide] | 12400 | 
12 | CCn1ccc2cnc(NC(=O)c3ccc([C@@](C)(O)CO)c(C)c3)cc21 [Compound 27, (R)-4-(1,2-dihydroxypropan-2-yl)-N-(1-ethyl-1H-pyrrolo[3,2-c]pyridin-6-yl)-3-methylbenzamide] | 528 | 
13 | CC(C)(CO)c1ccc(C(=O)Nc2cc3c(cn2)c(Cl)cn3C2CC2)cc1 [Compound 28, N-(3-chloro-1-cyclopropyl-1H-pyrrolo[3,2-c]pyridin-6-yl)-4-(1-hydroxy-2-methylpropan-2-yl)benzamide] | 16 | 
14 | Cn1c(Cl)c(Cl)c2cnc(NC(=O)c3ccc([C@@](C)(O)CO)cc3)cc21 [Compound 32, (R)—N-(2,3-dichloro-1-methyl-1H-pyrrolo[3,2-c]pyridin-6-yl)-4-(1,2-dihydroxypropan-2-yl)benzamide] | 122 | 
15 | CCn1cc(Cl)c2cnc(NC(=O)c3ccc([C@@](C)(O)CO)c(C)c3)cc21 [Compound 33, (R)—N-(3-chloro-1-ethyl-1H-pyrrolo[3,2-c]pyridin-6-yl)-4-(1,2-dihydroxypropan-2-yl)-3-methylbenzamide] | 41 | 
